In US20200369674A1, “ANTI-PAIN COMPOUND AND PREPARATION METHOD THEREOF” (LUNAN PHARMACEUTICAL GROUP CORPORATION, priority 2017, published 2020):

Assays:
Type in all cases: in vivo
ICR mice [1] = assay: Hot plate test; settings: Mus musculus, po, latency 2.0 hours after administration, hot plate 55° C., read-out: PTE %; for change in vivo at 1 mg/kg: 1 mg/kg intragastric; for change in vivo at 4 µmol/kg: 4 μmol/kg intragastric
Protocol: (§1) ICR mice, 18-22 g, half of them being male and the other half being female, provided by the Department of Laboratory Animals, Peking University (License No.: SCXK (Beijing) 2016-0010).
The temperature of hot plate was adjusted to 55° C., and the responses of mouse such as licking hind feet and jumping were used as the observation indexes. The time from the placement of mice on copper plate to the appearance of the above responses was defined as latency time. The latency time was measured for three times 30 minutes before administration, and the average value thereof was used as basic threshold, or baseline latency (BL). The animals with a latency time greater than 15 s and less than 5 s were removed, and the residual mice were randomly grouped, 8 animals per group.
Vehicle control group (double-distilled water) and groups for samples to be tested (the compounds and doses thereof were shown in Table 1) were set. All drugs were dissolved in […] before administration, and given by intragastric administration. The latency time was measured 2.0 hours after administration. Percentage of Pain Threshold Elevated Rate (PTE %) of compound on mice was calculated according to the following formula:
PTE %=(latency time of test group−latency time of vehicle control group)/latency time of vehicle control group×100

ICR mice [2] = assay: Formalin experiment; settings: Mus musculus, po, 2 h, 2.5% formalin two hours after administration, phase II 10-60 minutes, read-out: Phase II pain inhibition rate (%); for inhibition in vivo at 1 mg/kg: 1 mg/kg intragastric; for inhibition in vivo at 4 µmol/kg: 4 μmol/kg intragastric
Protocol: as §1
ICR mice, half of them being male and the other half being female, were randomly grouped, 8 mice per group. Vehicle control group (double-distilled water) and groups for samples to be tested were set, in which the compounds and doses thereof were shown in Table 3. All drugs were dissolved in double-distilled water before administration, and given by intragastric administration at predetermined doses. Two hours after administration, the mice were injected with 20 ul of 2.5% formalin solution in the right hind foot, and the time (s) of licking or biting foot was recorded as an index of pain response, in which 0-5 minutes was phase I, 10-60 minutes was phase II, and the total observation time was 60 minutes. The phase II pain inhibition rate of compound in mice was calculated according to the following formula:
Inhibition rate %=(time of licking or biting foot in vehicle control group−time of licking or biting foot in test group)/time of licking or biting foot in vehicle control group×100

ICR mice [3] = assay: Acetic acid writhing test; set-up: key to Inhibition rate (%): Symbol “—” indicates that the data obtained at this dose was not significantly different from the vehicle control group; settings: 0.6% acetic acid ip two hours after administration; for inhibition in vivo at 4 µmol/kg: Mus musculus, 2 h, read-out: Inhibition rate (%)
Protocol: as §1
ICR mice, half of them being male and the other half being female, were randomly grouped, 8 mice per group. Vehicle control group (double-distilled water), ibuprofen control group, and groups for samples to be tested (the compounds and doses thereof were shown in Table 2) were set. All drugs were dissolved in double-distilled water before administration, and given by intragastric administration at predetermined doses. Two hours after the administration, the mice were intraperitoneally injected with 0.6% acetic acid solution (10 ml/kg, ip), and the number of times the mice writhed (abdomen depressed, buttock raised, body elongated) was recorded within 5-20 minutes. The inhibition rate % of compound on writhing pain in mice was calculated according to the following formula.
Inhibition rate %=(number of writhing times in vehicle control group−number of writhing times in test group)/number of writhing times in vehicle control group×100

ICR mice [4] = assay: Xylene-induced mouse ear swelling test (Effect Example 4); set-up: key to Inhibition rate (%): Symbol “—” indicates that the data obtained at this dose was not significantly different from the vehicle control group; settings: 50 uL xylene two hours after administration
Protocol: as §1
ICR mice were randomly grouped, 8 mice per group, half of them being male and the other half being female. Vehicle control group (double-distilled water) and groups for samples to be tested (the compounds and doses thereof were shown in Table 4). All drugs were dissolved in double-distilled water immediately before administration, and given by intragastric administration at predetermined doses. Two hours after administration, 50 uL of xylene was smeared evenly on the inner and outer sides of right ear of mouse. After 30 minutes, the left and right ears of mouse were cut, and circular ear pieces of the same size were punched at the same position on the left and right ears, and weighed. The ear swelling inhibition rate of compound in mice was calculated according to the formula.
Inhibition rate %=(degree of ear swelling in vehicle control group−degree of ear swelling in test group)/degree of ear swelling in vehicle control group×100

ICR mice [5] = assay: Carrageenan-induced paw swelling in mice; settings: 0.5 mg/kg i.g.
Protocol: (§2) ICR mice, body weight 18 g-22 g, half of them being male and the other half being female, provided by the Department of Laboratory Animals, Peking University. The animals were raised in a standard environment: temperature 23±1° C., relative humidity 55±5%, light-dark cycle 12 h/12 h, and fed with standard pellet feed.
The mouse was fixed in a special holder, and both hind feet were exposed. Before the test, a line was drawn at 0.5 cm below the ankle joint of mouse with a marker, and used as a mark for measuring plantar volume. 30 minutes before administration the volume of right hind foot was measured as basic threshold. The mice were randomly divided into 5 groups, 8 mice per group, half of them being male and the other half being female. Vehicle control group (double-distilled water, i.g.), dexamethasone control group (0.5 mg/kg, i.g.), compound DXL-A-22 group (1 mg/kg, i.g.), and DXL-A-24 group (1 mg/kg, i.g.) were set. All drugs were dissolved in double-distilled water before administration, and were administered at 0.1 mL/10 g. Immediately after intragastric administration, 20 μL of 5% carrageenan saline solution was injected subcutaneously in the right hind foot of the mice, and the plantar volumes were measured at time points of 0.5 h, 1 h and 2 h after injection. The difference between the plantar volume of right foot after injection of carrageenan and the plantar volume of right foot before injection was used as swelling degree index (i.e., swelling degree). The swelling degree was calculated according to formula (3). The intensity of anti-inflammatory effect was expressed as inhibition rate (%), and the inhibition rate (%) was calculated according to formula (4).
Swelling degree=plantar volume of right foot after injection−plantar volume of right foot before injection (3)
Inflammation inhibition rate (%)=(plantar swelling degree in vehicle control group−plantar swelling degree in drug administration group)/plantar swelling degree in vehicle control group×100% (4)

ICR mice [6] = assay: Xylene-induced ear swelling test in mice (Effect Example 6); settings: 2 mg/kg i.g., 30 μL xylene one hour after administration
Protocol: as §2
Mice were randomly divided into 5 groups, 8 mice per group, half of them being male and the other half being female. Vehicle control group (double-distilled water, i.g.), dexamethasone control group (2 mg/kg, i.g.), compound DXL-A-22 group (1 mg/kg, i.g.), and compound DXL-A-24 group (1 mg/kg, i.g.) were set. All drugs were dissolved in double-distilled water before administration, and given by intragastric administration at 0.1 mL/10 g. One hour after administration, 30 μL of xylene was evenly smeared on the inner and outer sides of right ear of mouse to cause inflammation. After 0.5 hour, the left and right ears of mouse were cut, and circular ear pieces of the same size were punched at the same position on the left and right ears using the punch (diameter 6 mm) respectively, and weighed for the weights of the left and right ear pieces. The difference between the weight of the right ear after applying xylene and the weight of the left ear without applying xylene was used as swelling degree index (i.e., swelling degree). The swelling degree was calculated according to formula (1). The intensity of anti-inflammatory effect was expressed as inhibition rate (%), and the inhibition rate (%) was calculated according to formula (2).
Swelling degree=weight of right ear piece−weight of left ear piece (1)
Inflammation inhibition rate (%)=(ear swelling degree in vehicle control group−ear swelling degree in drug group)/ear swelling degree in vehicle control group×100% (2)

[7] = Mus musculus, po, 2 h, 4 μmol/kg intragastric, read-out: Inhibition rate (%)

## Br.Fc1ccc(N2CC[N+]3(CCCC3)CC2)cc1 [DXL-A-16, 8-(4-fluorophenyl)-5,8-diazaspiro[4.5]decan-5-ium bromide]
ICR mice [1]
  change in vivo at 1 mg/kg: 31.4%
ICR mice [2]
  inhibition in vivo at 1 mg/kg: 31.4%
ICR mice [3]; 1 mg/kg intragastric
  Inhibition rate (%): —
ICR mice [4]; 1 mg/kg intragastric
  Inhibition rate (%): —

## Br.N#Cc1ccc(N2CC[N+]3(CCCC3)CC2)cc1 [DXL-A-19, 8-(4-cyanophenyl)-5,8-diazaspiro[4.5]decan-5-ium bromide]
ICR mice [1]
  change in vivo at 1 mg/kg: 34.3%
ICR mice [2]
  inhibition in vivo at 1 mg/kg: 34.3%
ICR mice [3]; 1 mg/kg intragastric
  Inhibition rate (%): —
ICR mice [4]; 1 mg/kg intragastric
  Inhibition rate (%): —

## Br.Fc1ccc(N2CC[N+]3(CCCC3)CC2)cc1F [DXL-A-21, 8-(3,4-difluorophenyl)-5,8-diazaspiro[4.5]decan-5-ium bromide]
ICR mice [1]
  change in vivo at 1 mg/kg: 36.6%
ICR mice [2]
  inhibition in vivo at 1 mg/kg: 36.6%
ICR mice [3]; 1 mg/kg intragastric
  Inhibition rate (%): —
ICR mice [4]; Mus musculus, po, 2 h, 1 mg/kg intragastric, read-out: Inhibition rate (%)
  inhibition in vivo at 1 mg/kg: 42.5%

## Clc1ccc(N2CC[N+]3(CCCC3)CC2)cc1.[Br-] [DXL-A-23, 8-(4-chlorophenyl)-5,8-diazaspiro[4.5]decan-5-ium bromide]
ICR mice [1]
  change in vivo at 1 mg/kg: 39.2%
ICR mice [2]
  inhibition in vivo at 1 mg/kg: 39.2%
ICR mice [3]; 1 mg/kg intragastric
  Inhibition rate (%): —
ICR mice [4]; 1 mg/kg intragastric
  Inhibition rate (%): —

## FC(F)(F)c1cc(N2CC[N+]3(CCCC3)CC2)cc(C(F)(F)F)c1 [DXL-A-27, 8-(3,5-bis(trifluoromethyl)phenyI)-5,8-diazaspiro[4.5]decan-5-ium bromide]
ICR mice [1]
  change in vivo at 4 µmol/kg: 49%
ICR mice [2]
  inhibition in vivo at 4 µmol/kg: 20.1%
ICR mice [3]; 4 μmol/kg intragastric
  Inhibition rate (%): —
ICR mice [4]; [7]
  inhibition in vivo at 4 µmol/kg: 4.13%

## O=[N+]([O-])c1cc(N2CC[N+]3(CCCC3)CC2)cc(C(F)(F)F)c1 [DXL-A-28, 8-(3-nitro-5-(trifluoromethyl)phenyI)-5,8-diazaspiro[4.5]decan-5-ium bromide]
ICR mice [1]
  change in vivo at 4 µmol/kg: 36%
ICR mice [2]
  inhibition in vivo at 4 µmol/kg: 13.3%
ICR mice [3]; 4 μmol/kg intragastric
  Inhibition rate (%): —
ICR mice [4]; [7]
  inhibition in vivo at 4 µmol/kg: 9.27%

## Cc1cc(N2CC[N+]3(CCCC3)CC2)cc([N+](=O)[O-])c1 [DXL-A-29, 8-(3-methyl-5-nitrophenyl)-5,8-diazaspiro[4.5]decan-5-ium bromide]
ICR mice [1]
  change in vivo at 4 µmol/kg: 36%
ICR mice [2]
  inhibition in vivo at 4 µmol/kg: 17.3%
ICR mice [3]; 4 μmol/kg intragastric
  inhibition in vivo at 4 µmol/kg: 76%
ICR mice [4]; [7]
  inhibition in vivo at 4 µmol/kg: 63.3%

## Cc1ccc(N2CC[N+]3(CCCC3)CC2)cc1[N+](=O)[O-].[Br-] [DXL-A-30, 8-(4-methyl-3-nitrophenyl)-5,8-diazaspiro[4.5]decan-5-ium bromide]
ICR mice [1]
  change in vivo at 4 µmol/kg: 21%
ICR mice [2]
  inhibition in vivo at 4 µmol/kg: 16.9%
ICR mice [3]; 4 μmol/kg intragastric
  inhibition in vivo at 4 µmol/kg: 41.8%
ICR mice [4]; 4 μmol/kg intragastric
  Inhibition rate (%): —

## N#Cc1ccc(N2CC[N+]3(CCCC3)CC2)cc1[N+](=O)[O-].[Br-] [DXL-A-32, 8-(4-cyano-3-nitrophenyl)-5,8-diazaspiro[4.5]decan-5-ium bromide]
ICR mice [1]
  change in vivo at 4 µmol/kg: 38%
ICR mice [2]
  inhibition in vivo at 4 µmol/kg: 2.64%
ICR mice [3]; 4 μmol/kg intragastric
  Inhibition rate (%): —
ICR mice [4]; [7]
  inhibition in vivo at 4 µmol/kg: 20.4%

## C[C@@H]1C[C@H]2[C@@H]3CCC4=CC(=O)C=C[C@]4(C)[C@@]3(F)[C@@H](O)C[C@]2(C)[C@@]1(O)C(=O)CO [Dexamethasone, reference compound]
ICR mice [5]; 0.5 h after carrageenan injection
  0.5 h inhibition rate (%): 69.55%
ICR mice [5]; 0.5 h after carrageenan injection, mean±SD
  0.5 h swelling degree (μL): 26.00 ± 14.21**/ μL
ICR mice [5]; 1 h after carrageenan injection
  1 h inhibition rate (%): 77.06%
ICR mice [5]; 1 h after carrageenan injection, mean±SD
  1 h swelling degree (μL): 19.88 ± 10.09**/ μL
ICR mice [5]; 2 h after carrageenan injection
  2 h inhibition rate (%): 84.64%
ICR mice [5]; 2 h after carrageenan injection, mean±SD
  2 h swelling degree (μL): 17.13 ± 11.54**/ μL
ICR mice [6]
  Inhibition rate (%): 69.28%
ICR mice [6]; mean±SD
  Swelling degree: 2.93 ± 0.32 mg
